In patent publication US11505528B2, “Inhibitors of microbially induced amyloid” (Axial Therapeutics, Inc., priority 2017, dated 2022):
Entries after “also recorded” stand apart in the source; their conditions may differ.

How the values were obtained:
[1] = system: Thy1-αSyn mice (ASO) mono-colonized with WT E. coli; experiment: Motor function of germ-free Thy1-αSyn (ASO) mice mono-colonized with WT E. coli, EGCG in drinking water; assay type: in vivo
[2] = system: αSyn aggregates; experiment: αSyn aggregates in brain of ASO mice mono-colonized with WT E. coli, EGCG in drinking water; assay type: in vivo
[3] = 15-16 weeks of age, EGCG ad lib in drinking water, vs vehicle treated control

O=C(O[C@@H]1Cc2c(O)cc(O)cc2O[C@@H]1c1cc(O)c(O)c(O)c1)c1cc(O)c(O)c(O)c1 [EGCG, epigallocatechin gallate]
beam traversal time (time to cross) [1, 3]: lower
hindlimb clasping score [1, 3]: lower
nasal adhesive removal time (time to remove) [1, 3]: lower
pole descent time (time to descent) [1, 3]: lower
wire hang test (time to fall) [1, 3]: higher
progressive motor deficits exacerbated by E. coli ([1]; assessment of motor performance, EGCG treatment): dampens
αSyn aggregation in the striatum and midbrain ([2]; EGCG treatment): preventing
Proteinase K resistant αSyn aggregates in the substantia nigra ([2]; immunofluorescence microscopy, EGCG-treated vs vehicle/untreated controls): lower; also recorded: Fewer
